Results reported in ChEMBL document CHEMBL1201862, “PubChem BioAssay data set” (2004).
Where “and” joins values, the source holds several entries; their conditions need not be identical. Equal entries are not always repeated.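 Test compounds were applied to cells in 96-well plates for 48 hours at 5 doses. GI50 = concentration required for 50% inhibition of growth.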 Calls of active or inactive are those of the source. Cut-off read from the data, not from the text of the source: active = GI50 up to about 1.1 µM and inactive = higher.

Assays:
Assay in all cases: NCI anticancer screen, dose series, 48 h
[1] = system: SR
[2] = system: NCI-H460
[3] = system: T47D
[4] = system: HL-60
[5] = system: HCT-15
[6] = system: MCF7
[7] = system: MDA-MB-231
[8] = system: CCRF-CEM
[9] = system: HOP-92
[10] = system: SF-268
[11] = system: RPMI-8226
[12] = system: UACC-257
[13] = system: IGROV-1
[14] = system: SK-MEL-5
[15] = system: ACHN
[16] = system: MDA-N
[17] = system: NCI-H522
[18] = system: A549
[19] = system: SF-295
[20] = system: UO-31

| SMILES | GI50 [1] | GI50 [2] | GI50 [3] | GI50 [4] | GI50 [5] | GI50 [6] | GI50 [7] | GI50 [8] | GI50 [9] | GI50 [10] | GI50 [11] | GI50 [12] | GI50 [13] | GI50 [14] | GI50 [15] | GI50 [16] | GI50 [17] | GI50 [18] | GI50 [19] | GI50 [20] |
| --- | --- | --- | --- | --- | --- | --- | --- | --- | --- | --- | --- | --- | --- | --- | --- | --- | --- | --- | --- | --- |
| c1ccc(NN(Cc2cnccn2)c2ccccc2)cc1 | 61.9 µM (inactive) | 91.8 µM (inactive) | 68.4 µM (inactive) | 67.5 µM (inactive) | 79.8 µM | 44.9 µM (inactive) | 76.9 µM (inactive) | 10.5 µM (inactive) | 19.1 µM (inactive) | > 100 µM (inactive) | 55.7 µM (inactive) | 51.6 µM (inactive) | 83.2 µM (inactive) | 40.2 µM (inactive) | > 100 µM (inactive) | 40.2 µM (inactive) | 44 µM (inactive) | 42.2 µM (inactive) | 73.8 µM (inactive) | – |
| COC(=O)C1OC(O[C@H]2CC[C@]3(C)[C@H]4CC=C5[C@@H]6CC(C)(C)CC[C@]6(C(=O)OC6OCC(O)C(O)C6OC6OC(C)C(OC7OCC(O)C(OC8OCC(O)C(O)C8O)C7O)C(OC7OCC(O)C(O)C7O)C6O)CC[C@@]5(C)[C@]4(C)CC[C@H]3C2(C)C)C(O)C(OC2OCC(O)C(O)C2O)C1O (stereo partly drawn) | 1.75 µM (inactive) and 2.72 µM (inactive) | – | 3.45 µM (inactive) and 3.29 µM (inactive) | 2.28 µM (inactive) and 1.97 µM (inactive) | 14.1 µM and 27.4 µM | 4.71 µM (inactive) and 3.27 µM (inactive) | 2.73 µM (inactive) and 3.51 µM (inactive) | 11.3 µM (inactive) and 10.6 µM (inactive) | 2.19 µM (inactive) and 2.25 µM (inactive) | 6.53 µM (inactive) and 8.45 µM (inactive) | 2.62 µM (inactive) and 4.37 µM (inactive) | 3.17 µM (inactive) and 2.91 µM (inactive) | 7.41 µM (inactive) and 9.25 µM (inactive) | 3.8 µM (inactive) and 2.52 µM (inactive) | 4.84 µM (inactive) and 4.03 µM (inactive) | 2.02 µM (inactive) and 1.79 µM (inactive) | 1.95 µM (inactive) and 1.77 µM (inactive) | 3.17 µM (inactive) and 3.16 µM (inactive) | 5.19 µM (inactive) and 3.39 µM (inactive) | 2.01 µM (inactive) and 1.9 µM (inactive) |
| CC1OC(n2cnc3c(N)nc(Cl)nc32)C(C)(O)C1O (stereo not drawn) | > 25 µM (inactive) | – | > 25 µM (inactive) | > 25 µM (inactive) | > 25 µM | > 25 µM (inactive) | > 25 µM (inactive) | > 25 µM (inactive) | > 25 µM (inactive) | > 25 µM (inactive) | > 25 µM (inactive) | > 25 µM (inactive) | > 25 µM (inactive) | > 25 µM (inactive) | > 25 µM (inactive) | > 25 µM (inactive) | > 25 µM (inactive) | > 25 µM (inactive) | > 25 µM (inactive) | 16.7 µM (inactive) |
| CCC(c1ccccc1)c1cc(C(C)(C)C)cc(C(C)(C)C)c1O (stereo not drawn) | 31.7 µM (inactive) | 17.5 µM (inactive) | 16.1 µM (inactive) | – | 16.8 µM | 20.1 µM (inactive) | 18.1 µM (inactive) | – | 16.5 µM (inactive) | 15.3 µM (inactive) | 13.6 µM (inactive) | 15.2 µM (inactive) | 17 µM (inactive) | 18.1 µM (inactive) | 18.6 µM (inactive) | 17.1 µM (inactive) | 13.7 µM (inactive) | 16.3 µM (inactive) | 13.9 µM (inactive) | 18.4 µM (inactive) |
| O=C(O)CCC[C@]1(O)O[C@@]2(CCCC2=O)[C@]2(O)CCC[C@@]21O | > 100 µM (inactive) | > 100 µM (inactive) | > 100 µM (inactive) | > 100 µM (inactive) | > 100 µM | > 100 µM (inactive) | > 100 µM (inactive) | – | > 100 µM (inactive) | > 100 µM (inactive) | > 100 µM (inactive) | > 100 µM (inactive) | > 100 µM (inactive) | > 100 µM (inactive) | > 100 µM (inactive) | > 100 µM (inactive) | 0.106 µM (active) | > 100 µM (inactive) | 4.24 µM (inactive) | > 100 µM (inactive) |
| CC(C)(CCCCC(C)(C)NCC1COc2ccccc2O1)NCC1COc2ccccc2O1 (stereo not drawn) | > 10 µM (inactive) | > 10 µM (inactive) | 7.83 µM (inactive) | > 10 µM (inactive) | 7.98 µM | 5.98 µM (inactive) | 3.54 µM (inactive) | > 10 µM (inactive) | 2.19 µM (inactive) | 5.45 µM (inactive) | > 10 µM (inactive) | 2.04 µM (inactive) | > 10 µM (inactive) | 1.6 µM (inactive) | > 10 µM (inactive) | 2.81 µM (inactive) | 5.51 µM (inactive) | > 10 µM (inactive) | 9.95 µM (inactive) | – |
| CC1(C)CNC(c2ccc3c(c2)Cc2cc(C4=NC(C)(C)CN4)ccc2-3)=N1 | 32.5 µM (inactive) | 30.8 µM (inactive) | 61.2 µM (inactive) | – | > 100 µM | 23.3 µM (inactive) | 39.1 µM (inactive) | 48.2 µM (inactive) | 90.8 µM (inactive) | 34.6 µM (inactive) | 25.2 µM (inactive) | 31 µM (inactive) | > 100 µM (inactive) | 60.7 µM (inactive) | > 100 µM (inactive) | 39.8 µM (inactive) | 29.9 µM (inactive) | > 100 µM (inactive) | > 100 µM (inactive) | > 100 µM (inactive) |
| COc1ccc(/N=N/C(=N/NC(=O)c2ccc(C)cc2)c2ccc(N(CCC#N)CCC#N)cc2OC)cc1 | 36.6 µM (inactive) | > 100 µM (inactive) | > 100 µM (inactive) | < 0.01 µM (active) | > 100 µM | > 100 µM (inactive) | > 100 µM (inactive) | – | > 100 µM (inactive) | > 100 µM (inactive) | – | > 100 µM (inactive) | > 100 µM (inactive) | > 100 µM (inactive) | > 100 µM (inactive) | > 100 µM (inactive) | > 100 µM (inactive) | > 100 µM (inactive) | > 100 µM (inactive) | > 100 µM (inactive) |
| CCNC1=C(NC(=O)CC)C(=O)c2ccccc2C1=O | > 100 µM (inactive) | > 100 µM (inactive) | > 100 µM (inactive) | 74.8 µM (inactive) | 64.3 µM | > 100 µM (inactive) | > 100 µM (inactive) | 56 µM (inactive) | > 100 µM (inactive) | > 100 µM (inactive) | > 100 µM (inactive) | 30.2 µM (inactive) | > 100 µM (inactive) | 54.1 µM (inactive) | > 100 µM (inactive) | > 100 µM (inactive) | 46.1 µM (inactive) | > 100 µM (inactive) | > 100 µM (inactive) | – |
| CC1(C)COP(=S)(c2ccccn2)O[C@@H]1c1ccccc1 (stereo partly drawn) | 30 µM (inactive) | > 100 µM (inactive) | 22.3 µM (inactive) | 24.1 µM (inactive) | 94.2 µM | 98.6 µM (inactive) | > 100 µM (inactive) | 42.1 µM (inactive) | > 100 µM (inactive) | > 100 µM (inactive) | – | > 100 µM (inactive) | > 100 µM (inactive) | 26.9 µM (inactive) | > 100 µM (inactive) | 74.6 µM (inactive) | 56.6 µM (inactive) | 81.3 µM (inactive) | 55.2 µM (inactive) | 50.8 µM (inactive) |
| Cc1ccnc(NC(NC(=O)c2ccccc2)(C(F)(F)F)C(F)(F)F)c1 | 41.1 µM (inactive) | – | > 100 µM (inactive) | > 100 µM (inactive) | > 100 µM | > 100 µM (inactive) | > 100 µM (inactive) | 75.9 µM (inactive) | > 100 µM (inactive) | > 100 µM (inactive) | 18.2 µM (inactive) | > 100 µM (inactive) | > 100 µM (inactive) | > 100 µM (inactive) | > 100 µM (inactive) | > 100 µM (inactive) | > 100 µM (inactive) | > 100 µM (inactive) | > 100 µM (inactive) | > 100 µM (inactive) |
| CC(C)Sc1nc(C#N)cc2c1CCCC2 | 20.7 µM (inactive) | 48.9 µM (inactive) | 56.9 µM (inactive) | – | 37.6 µM | 39.4 µM (inactive) | 57.1 µM (inactive) | 24.8 µM (inactive) | 33.5 µM (inactive) | 50.7 µM (inactive) | 26.4 µM (inactive) | 39.9 µM (inactive) | 96.2 µM (inactive) | 15.8 µM (inactive) | 40.6 µM (inactive) | 37.7 µM (inactive) | 21.1 µM (inactive) | 37.1 µM (inactive) | 40.9 µM (inactive) | 47.6 µM (inactive) |
| COc1ccc2c(c1)nc1n2C(c2c(F)cccc2F)SC1 (stereo not drawn) | 13.5 µM (inactive) | 39.4 µM (inactive) | 71.6 µM (inactive) | 27.9 µM (inactive) | 35.2 µM | 38.3 µM (inactive) | > 100 µM (inactive) | 47.5 µM (inactive) | 76 µM (inactive) | 32.2 µM (inactive) | 30.6 µM (inactive) | 45.7 µM (inactive) | 47.5 µM (inactive) | 24.2 µM (inactive) | > 100 µM (inactive) | 40 µM (inactive) | – | 34.8 µM (inactive) | 32.4 µM (inactive) | 56 µM (inactive) |
| CCCCC/C=C1/CC(CO)(COC(=O)CC(C(C)C)C(C)C)OC1=O (stereo not drawn) | 16.6 µM (inactive) | 13.2 µM (inactive) | 17.5 µM (inactive) | – | 18.7 µM | 17.1 µM (inactive) | 15.6 µM (inactive) | 16 µM (inactive) | 7.35 µM (inactive) | 16.4 µM (inactive) | – | 21.4 µM (inactive) | 17.8 µM (inactive) | 9.95 µM (inactive) | 11.4 µM (inactive) | 3.67 µM (inactive) | 16.4 µM (inactive) | 11.1 µM (inactive) | 5.73 µM (inactive) | 11.9 µM (inactive) |
